Source: patent publication US7045152B2, “Treating pulmonary disorders with gaseous agent causing repletion of GSNO” (Duke University, priority 1999, dated 2006)

Legend:
Assay type in all cases: in vivo, human
[1] = test system: cystic fibrosis; test: Inhaled gas / nebulized treatment of patients with cystic fibrosis (Examples IV, IX, XI, XII)
[2] = test system: ARDS; test: Inhaled gas treatment of patients with ARDS (Examples II, VI, VII, VIII)
[3] = test system: asthma; test: Inhaled gas treatment of patients with asthma (Examples III, X); conditions: Example III; child, status asthmaticus, intubated; 20 ppm in nitrogen

`[Na+].[Na+].[O-][N+]([O-])=NO` [Angeli's salt, reference compound] was tested, and the sputum production ([1]; Example XI, 100 mM in 3 cc normal saline nebulized Q 6 hours, over two days, after HNO) was “decreases in sputum production”.

`CCON=O` [Ethylnitrite] was tested, and the PaO2 ([2]; Example VII, ENO in nitrogen started again (arrow D), from 43) was 49 mm Hg, the PaO2 ([2]; Example VII, ENO stopped (arrow C), from 46) was 43 mm Hg and the blood pressure ([2]; Example VII, hemodynamically unstable patient, ENO 40 ppm in nitrogen) was “stabilized”. The PaO2 ([2]; Example VII, over the following 12 hours on ENO, progressively less responsive) was 37 millimeters of mercury, the PaO2 ([2]; Example VII, person, viral pneumonia progressed to ARDS, initial ENO 40 ppm in nitrogen (arrow A), from 39 on 100% oxygen) was 48 mm Hg and the PaO2 ([2]; Example VIII, person, ARDS, inhaled 10 ppm in nitrogen for three days, from 50) was 40 mm Hg. For the same compound, the “GSNO levels in the airway lining fluid” value ([1]; human, in vivo) was “increase”, the blood gases ([1]; human, in vivo) was “improved” and the pulmonary hemorrhage ([1]; human, in vivo) was “the hemorrhage stops”. The state of health ([1]; human, in vivo) was “reverts to their normal state of health”.

`CSN=O` [Methylthionitrite] was tested, and the PaO2 ([2]; Example VI, person, AML, ARDS, intubated, 20 parts per million oxygen, from PO2 40 on 100% oxygen) was 70 mm Hg.

In the case of `CC(=O)N[C@@H](CS)C(=O)O` [N-acetylcysteine, reference compound], the PaO2 ([2]; Example VII, nebulized N-acetylcysteine added to ENO (arrow B), from 37) is reported as 46 mm Hg.

`COS(=O)N=O` (centres unmarked) [methylnitrososulfinate] was tested, and the airway pressures [3] was “airway pressures decrease”.
